In brackets after ≈: the same amount, converted by molar mass.

For the first data set the following is noted: 20 °C.
For the molecule `NC(N)=Nc1nc2ccccc2s1`, the solubility amounted to 3.62 mM (≈ 696 µg/mL).

Turning to `OCc1cccc(O)c1`, the solubility is 540 mM (≈ 67000 µg/mL). Compared with the last molecule, the solubility is about 150-fold higher.

On to `CC(C)Cc1nnc(NS(=O)(=O)c2ccc(N)cc2)s1`, for which the solubility was 0.15 mM (≈ 47 µg/mL).

Consider `O=C(O)c1oc(Cl)c(Cl)c1Cl`, for which the solubility turned out to be 6.04 mM (≈ 1300 µg/mL).

On to `CCCc1ncnc2c(O)cccc12`, for which the solubility is 1.2 mM (≈ 226 µg/mL). Against the preceding molecule, the solubility is about 5-fold lower.

Take `CCC(O)C(Cl)(Cl)Cl` (stereo not given): the solubility was found to be 113 mM (≈ 20000 µg/mL).

With `CC=C(CCCC)C(N)=O`, the solubility was 42.5 mM (≈ 6000 µg/mL).

`Cn1c(=O)cnc2cncnc21` yielded a solubility of 123 mM (≈ 20000 µg/mL).

Staying with this data set, now noted: 21 °C.
Regarding `NC(N)=NCCS(=O)(=O)O`, the solubility amounted to 233 mM (≈ 39000 µg/mL). This lies in the millimolar range.

For `COc1ccc2[nH]c(=O)cc(C(=O)O)c2c1`, the solubility is 0.776 mM (≈ 170 µg/mL).

As for `O=C(O)COc1ccc([N+](=O)[O-])cc1[N+](=O)[O-]`, the solubility was 11.6 mM (≈ 2800 µg/mL).

In the case of `CNC(CC(=O)O)C(=O)O` (stereo in doubt), the solubility turned out to be 176 mM (≈ 25900 µg/mL). Against the preceding molecule, the solubility is about 15-fold higher.

The same data set, now with this note: 22 °C.
Molecule `NNc1cccc(S(=O)(=O)O)c1` displayed a solubility of 149 mM (≈ 28000 µg/mL). That is a millimolar value.

With `COc1cc2nccnc2c(N)c1OC`, the solubility was found to be 19.5 mM (≈ 4000 µg/mL).

Staying with this data set, now noted: 23 °C.
The molecule `O=c1[nH]c(=O)c2cc([N+](=O)[O-])cc([N+](=O)[O-])c2[nH]1` had a solubility of 0.623 mM (≈ 157 µg/mL).

Take `CCC(C(=O)O)C(CC)C(=O)O` (stereo not given): the solubility came out at 69.5 mM (≈ 12100 µg/mL).

The same data set, now with this note: 25 °C.
In turn, `Cc1ccc(S(=O)(=O)N(Cl)Cl)cc1` had a solubility of 0.342 mM (≈ 82.1 µg/mL).

In turn, `CCCCS(=O)(=O)C(S(=O)(=O)CCCC)S(=O)(=O)CCCC` displayed a solubility of 1.06 mM (≈ 400 µg/mL).

For the molecule `O=C1C(=O)c2ccccc2-c2ccccc21`, the solubility stood at 0.036 mM (≈ 7.5 µg/mL).

Regarding `CC(=O)OC[C@@H](O)[C@@H](OC(C)=O)[C@H](OC(C)=O)[C@H](C=O)OC(C)=O`, the solubility turned out to be 44.2 mM (≈ 15400 µg/mL).

Molecule `CCCCOP(=O)(CCCC)CCCC` yielded a solubility of 19.2 mM (≈ 4500 µg/mL).

In the case of `CCOP(=O)(OCC)OCC(C)C`, the solubility came to 66.6 mM (≈ 14000 µg/mL).

For the molecule `CCCCOC(=O)c1cccnc1`, the solubility was 14.6 mM (≈ 2610 µg/mL).

`O=CNCC(=O)O` registered a solubility of 1850 mM (≈ 191000 µg/mL).

`O=[N+]([O-])c1cc([N+](=O)[O-])c(-c2ccccc2)cc1O` came in with a solubility of 0.0346 mM (≈ 9 µg/mL).

`CCCCOP(=O)(CCCC)OCCCC` gave a solubility of 2 mM (≈ 500 µg/mL).

`O=C(O)c1ccc(F)c([N+](=O)[O-])c1` gave a solubility of 26.2 mM (≈ 4860 µg/mL).

Molecule `CCCC[C@H](NC(C)=O)C(=O)O` (racemic) showed a solubility of 307 mM (≈ 53100 µg/mL). This solubility is about 12-fold higher than that of the molecule before.

Regarding `O=C(O)c1ccc(O)cc1O`, the solubility turned out to be 37.5 mM (≈ 5780 µg/mL).

The molecule `Cc1cccc(CO)c1` gave a solubility of 409 mM (≈ 50000 µg/mL).

The molecule `CC(=O)Nc1ccc(C)cc1` registered a solubility of 8.04 mM (≈ 1200 µg/mL).

Molecule `Cc1cccc(I)c1O` showed a solubility of 14.5 mM (≈ 3400 µg/mL). Against the preceding molecule, the solubility is about 1.8-fold higher.

Molecule `O=C(Nc1ccccn1)c1cccnc1` came in with a solubility of 1.05 mM (≈ 210 µg/mL).

In turn, `Oc1ccc(C2CCCCC2)cc1` displayed a solubility of 0.34 mM (≈ 60 µg/mL). Compared with the last molecule, the solubility is about 3.1-fold lower.

Take `C[Si](C)(C)CCN`: the solubility worked out at 15.6 mM (≈ 1830 µg/mL). This solubility is about 46-fold higher than that of the molecule before.

In the case of `CCC/C(=C\C(=O)O)C(=O)O`, the solubility was found to be 70.2 mM (≈ 11100 µg/mL).

The molecule `CCC(O)CCC(C)C` (stereo not given) registered a solubility of 11.8 mM (≈ 1540 µg/mL).

Consider `CCCCCCCCOC(=O)c1cccnc1`, for which the solubility turned out to be 0.807 mM (≈ 190 µg/mL).

In the case of `CC(=O)NCCNC(C)=O`, the solubility was 4740 mM (≈ 683000 µg/mL).

The molecule `CCCCCCCCCNC(=O)c1cccnc1` had a solubility of 0.725 mM (≈ 180 µg/mL). This solubility is about 6500-fold lower than that of the molecule before.

In turn, `N#CI` showed a solubility of 233 mM (≈ 35600 µg/mL). This solubility is about 320-fold higher than that of the molecule before.

In the case of `CCC(=O)OC(C)C(=O)OC` (stereo not given), the solubility worked out at 137 mM (≈ 22000 µg/mL).

Regarding `O=C(O)c1cccs1`, the solubility worked out at 58.5 mM (≈ 7500 µg/mL). Compared with the last molecule, the solubility is about 2.3-fold lower.

`Oc1ccc(C2CCCCC2)c(O)c1` registered a solubility of 2.65 mM (≈ 510 µg/mL).

Molecule `CCC(=O)Oc1ccc([N+](=O)[O-])cc1` had a solubility of 0.128 mM (≈ 25 µg/mL). Against the preceding molecule, the solubility is about 21-fold lower.

In turn, `Nc1cc([N+](=O)[O-])ccc1I` displayed a solubility of 0.0379 mM (≈ 10 µg/mL).

As to `CC(C)C[C@H](NC=O)C(=O)O` (racemic), the solubility worked out at 185 mM (≈ 29500 µg/mL). This solubility is about 4900-fold higher than that of the molecule before.

Molecule `CCCC(C)(O)CCC` had a solubility of 25.9 mM (≈ 3370 µg/mL).

`NC(=O)c1cccc(S(N)(=O)=O)c1`: the solubility amounted to 6.99 mM (≈ 1400 µg/mL).

`CCCCC(=O)Oc1ccc([N+](=O)[O-])cc1` came in with a solubility of 0.0403 mM (≈ 9 µg/mL).

In turn, `CCCCCCCC(C(=O)O)C(=O)O` registered a solubility of 9.1 mM (≈ 1840 µg/mL).

`CCCCOC(=O)NS(N)(=O)=O` showed a solubility of 91.7 mM (≈ 18000 µg/mL). Against the preceding molecule, the solubility is about 10-fold higher.

On to `c1cn[nH]c1`, for which the solubility was 285 mM (≈ 19400 µg/mL).

Consider `O=c1ccc(Br)cc(Br)c1O`, for which the solubility is 0.314 mM (≈ 88 µg/mL).

As for `O=C(O)c1ccc(Br)c([N+](=O)[O-])c1`, the solubility stood at 1.08 mM (≈ 265 µg/mL).

Take `CCC(C)CC(O)CC` (stereo not given): the solubility stood at 13.8 mM (≈ 1800 µg/mL).

Turning to `Cc1cc(Cl)cc(Cl)c1O`, the solubility came to 9.04 mM (≈ 1600 µg/mL).

`OCc1ccccc1CO` came in with a solubility of 1140 mM (≈ 158000 µg/mL).

`O=C(O)CC[Se][Se]CCC(=O)O` yielded a solubility of 5.39 mM (≈ 1640 µg/mL).

`OCc1cccc(CO)c1` registered a solubility of 585 mM (≈ 80800 µg/mL).

On to `CC1(C)OC(=O)c2ccccc21`, for which the solubility was found to be 13.5 mM (≈ 2200 µg/mL).

In turn, `CCC(CC)(CC(=O)O)C(=O)O` had a solubility of 160 mM (≈ 27900 µg/mL).

For `O=c1ccccc(Br)c1O`, the solubility was 3.67 mM (≈ 738 µg/mL). Compared with the last molecule, the solubility is about 44-fold lower.

Regarding `O=c1ccc(Br)ccc1O`, the solubility was 0.274 mM (≈ 55 µg/mL).

With `CCCCOP(=O)(OC)OCCCC`, the solubility was 31.7 mM (≈ 7100 µg/mL). Compared with the last molecule, the solubility is about 120-fold higher.

Take `CCCC(=O)Oc1ccc([N+](=O)[O-])cc1`: the solubility came out at 0.115 mM (≈ 24 µg/mL).

`O=C(O)C(S)CCC(S)C(=O)O` (stereo not given) gave a solubility of 3.34 mM (≈ 703 µg/mL). Against the preceding molecule, the solubility is about 29-fold higher.

The data set is the same for the next values; noted with them: 30 °C.
With `CCCOC(=O)c1ccc(O)c(I)c1`, the solubility was determined as 0.206 mM (≈ 63 µg/mL).

In the case of `CCCOC(=O)CO[N+](=O)[O-]`, the solubility amounted to 11 mM (≈ 1800 µg/mL).

`COC(=O)CNC(=O)c1ccccc1` registered a solubility of 88 mM (≈ 17000 µg/mL). This solubility is about 8-fold higher than that of the molecule before.

(Values after the OPERA property sets (Mansouri et al. 2018).)
